pEC50: −log10 of the molar value. Where two headings read alike, the source gives them in different places.

This assay concerns TNFα. Nature of the assay: Cot Monocyte TNFα Cell Based Assay.
Where [1] appears, read: Homo sapiens, Monocyte, read-out: EC50 TNF, LPS-stimulated human monocytes, TNFα.
The mark [2] stands for this setting: read-out: EC50 TNF, LPS-stimulated human monocytes, TNFα.

Experimental: The cell suspension was then plated at a density of 5,000 cells/well onto black 384 well Greiner clear bottom plates. Plates were pre-spotted with test compounds and serially diluted in DMSO where 200 nL/well were delivered using the Echo 550 acoustic liquid dispenser (Labcyte®) for a final DMSO concentration of 0.5%. Plated cells were treated with compound for 1 hour at 37° C. Cells were then stimulated with 50 pg/ml of LPS (Sigma) excluding outside columns of plate used for unstimulated cell control wells. Cells were incubated for an additional 4 hours at 37° C. Cells were then spun out of the media and 5 μl of sample were taken and analyzed for total TNFα content using the TR-FRET Human TNFα detection system (CisBio). This system utilizes two labeled antibodies (cryptate and XL665) that bind to two different epitopes of the TNFα molecule and produce FRET signal proportional to the concentration of TNFα in the sample. […] Plates were covered with clear seals and incubated at room temp overnight. […] Percent of control was calculated as follows: % Control=100×(RatioSample−Ratio0% Stimulation)/(Ratio100% Stimulation−Ratio0% Stimulation) where unstimulated cells (0% stimulation) were the negative control and stimulated cells (100% stimulation) were used as the positive control.

In the case of `Cc1nc(F)ccc1[C@H](Nc1cc(C#N)c2ncc(C#N)c(NC3CCCCC3)c2c1)c1cn(C2(C(F)(F)F)CC2)nn1` [Example 585, (S)-4-(cyclohexylamino)-6-(((6-fluoro-2-methylpyridin-3-yl)(1-(1-(trifluoromethyl)-cyclopropyl)-1H-1,2,3-triazol-4-yl)methyl)amino)quinoline-3,8-dicarbonitrile], the pEC50 under setting [1] was 6.08.

With `Cc1cc(Cl)ncc1[C@H](Nc1cc(Cl)c2ncc(C#N)c(Nc3ccc(F)c(Cl)c3)c2c1)c1cn(C2CCN(C(C)(C)C)CC2)nn1` [Example 289], the pEC50 under setting [2] is 6.08.

Take `Cn1cnc([C@H](Nc2cc(Cl)c3ncc(C#N)c(Nc4ccc(F)c(Cl)c4)c3c2)c2c[nH]nn2)c1` [Example 266, (S)-8-chloro-4-((3-chloro-4-fluorophenyl)amino)-6-(((1-methyl-1H-imidazol-4-yl)(1H-1,2,3-triazol-4-yl)methyl)amino)-quinoline-3-carbonitrile]: under setting [1], the pEC50 was 4.54.

For `N#Cc1cnc2c(Cl)cc(N[C@@H](c3cccnc3)c3cn(CC(F)(F)F)nn3)cc2c1Nc1cnc(F)c(F)c1` [Example 209, (S)-8-chloro-4-((5,6-difluoropyridin-3-yl)amino)-6-((pyridin-3-yl(1-(2,2,2-trifluoroethyl)-1H-1,2,3-triazol-4-yl)methyl)amino)quinoline-3-carbonitrile], the negative-log EC50 (pEC50) under setting [1] is 6.03.

Take `COc1ccnc2cccc([C@H](Nc3cc(Cl)c4ncc(C#N)c(NCC(C)(C)C)c4c3)c3cn(C4(C(F)(F)F)CC4)nn3)c12` [Example 632, (S)-8-chloro-6-(((4-methoxyquinolin-5-yl)(1-(1-(trifluoromethyl)cyclopropyl)-1H-1,2,3-triazol-4-yl)methyl)amino)-4-(neopentylamino)quinoline-3-carbonitrile]: under setting [1], the pEC50 was 6.00.

Regarding `CC(C)(C)N1CCC(n2cc([C@@H](Nc3cc(Cl)c4ncc(C#N)c(Nc5ccc(F)c(Cl)c5)c4c3)c3cccc4ncsc34)nn2)CC1` [Example 52, (S)-6-((benzo[d]thiazol-7-yl(1-(1-(tert-butyl)piperidin-4-yl)-1H-1,2,3-triazol-4-yl)methyl)amino)-8-chloro-4-((3-chloro-4-fluorophenyl)amino)quinoline-3-carbonitrile], the pEC50 under setting [1] was 7.06.

On to `Cn1ccc2c([C@H](Nc3cc(Cl)c4ncc(C#N)c(NCC(C)(C)C)c4c3)c3cn(C4CC4)nn3)ccnc21` [Example 519, (S)-8-chloro-6-(((1-cyclopropyl-1H-1,2,3-triazol-4-yl)(1-methyl-1H-pyrrolo[2,3-b]pyridin-4-yl)methyl)amino)-4-(neopentylamino)quinoline-3-carbonitrile], for which the negative-log EC50 (pEC50) under setting [1] was 6.80.

For `Cn1ccc2c([C@H](Nc3cc(C#N)c4ncc(C#N)c(NCC(C)(C)C)c4c3)c3cn(C4(C(F)(F)F)CC4)nn3)ccnc21` [Example 664, (S)-6-(((1-methyl-1H-pyrrolo[2,3-b]pyridin-4-yl)(1-(1-(trifluoromethyl)cyclopropyl)-1H-1,2,3-triazol-4-yl)methyl)amino)-4-(neopentylamino)quinoline-3,8-dicarbonitrile], the pEC50 under setting [1] is 6.81.

On to `Cc1nc(Cl)ccc1[C@H](Nc1cc(Cl)c2ncc(C#N)c(NCC(C)(C)C)c2c1)c1cn(C2(C(F)(F)F)CC2)nn1` [Example 794, (S)-8-chloro-6-(((6-chloro-2-methylpyridin-3-yl)(1-(1-(trifluoromethyl)-cyclopropyl)-1H-1,2,3-triazol-4-yl)methyl)amino)-4-(neopentylamino)quinoline-3-carbonitrile], for which, under setting [1], the negative-log EC50 (pEC50) is 6.89.

Take `Cn1ccc2c([C@H](Nc3cc(Cl)c4ncc(C#N)c(NCC(C)(C)C)c4c3)c3cn(C(CF)CF)nn3)cccc2c1=O` [Example 777, (S)-8-chloro-6-(((1-(1,3-difluoropropan-2-yl)-1H-1,2,3-triazol-4-yl)(2-methyl-1-oxo-1,2-dihydroisoquinolin-5-yl)methyl)amino)-4-(neopentylamino)quinoline-3-carbonitrile]: under setting [1], the pEC50 was 7.34.

Consider `Cc1ncccc1[C@H](Nc1cc(Cl)c2ncc(C#N)c(Nc3ccc(F)c(Cl)c3)c2c1)c1cn(COC(=O)C(C)(C)C)nn1` [Example 274, (S)-(4-(((8-chloro-4-((3-chloro-4-fluorophenyl)amino)-3-cyanoquinolin-6-yl)amino)(2-methylpyridin-3-yl)methyl)-1H-1,2,3-triazol-1-yl)methyl pivalate], for which the negative-log EC50 (pEC50) under setting [1] is 6.43.

Take `Cc1cncc([C@H](Nc2cc(Cl)c3ncc(C#N)c(Nc4ccc(F)c(Cl)c4)c3c2)c2c[nH]nn2)c1` [Example 249, (S)-8-chloro-4--((3-chloro-4-fluorophenyl)amino)-6-(((5-methylpyridin-3-yl)(1H-1,2,3-triazol-4-yl)methyl)amino)quinoline-3-carbonitrile]: under setting [2], the negative-log EC50 (pEC50) was 6.48.

As to `CC(C)Oc1ncccc1[C@H](Nc1cc(Cl)c2ncc(C#N)c(Nc3ccc(F)c(Cl)c3)c2c1)c1cn(C2CCN(C(C)(C)C)CC2)nn1` [Example 291, (S)-6-(((1-(1-(tert-butyl)piperidin-4-yl)-1H-1,2,3-triazol-4-yl)(2-isopro-poxypyridin-3-yl)methyl)amino)-8-chloro-4-((3-chloro-4-fluorophenyl)-amino)quinoline-3-carbonitrile], under setting [2], the pEC50 was 6.32.

As to `Cc1nc(F)ccc1[C@H](Nc1cc(Cl)c2ncc(C#N)c(NCC(C)(C)C)c2c1)c1cn(C2(CC(F)(F)F)CC2)nn1` [Example 753, (S)-8-chloro-6-(((6-fluoro-2-methylpyridin-3-yl)(1-(1-(2,2,2-trifluoroethyl)-cyclopropyl)-1H-1,2,3-triazol-4-yl)methyl)amino)-4-(neopentylamino)quinoline-3-carbonitrile], the negative logarithm of the EC50 (pEC50) under setting [1] is 7.23.

Take `CC(C)(C)CNc1c(C#N)cnc2c(Cl)cc(N[C@H](c3cn(C4(C(F)(F)F)CC4)nn3)c3ccc(Cl)c4cnccc34)cc12` [Example 651, (S)-8-chloro-6-(((8-chloroisoquinolin-5-yl)(1-(1-(trifluoromethyl)cyclopropyl)-1H-1,2,3-triazol-4-yl)methyl)amino)-4-(neopentylamino)quinoline-3-carbonitrile]: the negative-log EC50 (pEC50) under setting [1] is 6.87.

Consider `CCN1CCC(n2cc([C@@H](Nc3cc(Cl)c4ncc(C#N)c(Nc5ccc(F)c(Cl)c5)c4c3)c3ccc4cccnc4c3)nn2)CC1` [Example 65, (S)-8-chloro-4-((3-chloro-4-fluorophenyl)amino)-6-(((1-(1-ethylpiperidin-4-yl)-1H-1,2,3-triazol-4-yl)(quinolin-7-yl)methyl)amino)quinoline-3-carbonitrile], for which the negative-log EC50 (pEC50) under setting [1] was 6.27.

With `CCN1CCC(n2cc([C@@H](Nc3cc(Cl)c4ncc(C#N)c(Nc5ccc(F)c(Cl)c5)c4c3)c3cccs3)nn2)CC1` [Example 380, (R)-8-chloro-4-((3-chloro-4-fluoro-phenyl)amino)-6-(((1-(1-ethylpiperidin-4-yl)-1H-1,2,3-triazol-4-yl)(thiophen-2-yl)methyl)amino)quinoline-3-carbonitrile], under setting [1], the negative-log EC50 (pEC50) is 6.22.

On to `Cc1ncoc1[C@H](Nc1cc(C#N)c2ncc(C#N)c(NCC(C)(C)C)c2c1)c1cn(C2(C(F)F)CC2)nn1` [Example 657, (R)-6-(((1-(1-(difluoromethyl)-cyclopropyl)-1H-1,2,3-triazol-4-yl)(4-methyloxazol-5-yl)methyl)amino)-4-(neopentylamino)quinoline-3,8-dicarbonitrile], for which the negative-log EC50 (pEC50) under setting [1] was 6.09.

As usually defined, the pEC50 is the negative decadic logarithm of the EC50, by convention in mol/L.

These data come from US11066414B2, “Cot modulators and methods of use thereof” (Gilead Sciences, Inc., priority 2015, dated 2021).
